Reference: PMC6370856, “Peptidyl prolyl cis/trans isomerase activity on the cell surface correlates with extracellular matrix development” (Communications Biology, 2019)

Legend:
[1] = test system: PBMC samples from healthy donors, mixed; experiment: PACS in a two-way mixed lymphocyte reaction; format: cell-based, human; conditions: for effect on PACS in two-way mixed lymphocyte reaction: PBMCs treated with immunosuppressive drug; for cell surface PPIase activity k, Exp. 1 / cell surface PPIase activity k, Exp. 2 / cell surface PPIase activity k, Exp. 3 / cell surface PPIase activity k, Exp. 4 / cell surface PPIase activity k, Mean: 24 hours
Description: PACS were measured with four PBMC samples from healthy donors or with all six different combinations. […] After 24 h, diminished activity was detected in all combinations (Fig. 6d). For two combinations, no trace of activity could be detected, resembling the results from some primary samples of leukemia cells.
Mixed lymphocyte reaction is a routine assay used to measure the safety of implantable materials and the effect of immunosuppressive treatments. The PACS assay could become an alternative test, within a relatively short period of time, avoiding the use of biochemical reagents such as antibodies.
The assay was performed in a cold room. If there was no additional description, the assays were performed in CO2-independent medium supplemented with 10% (v/v) h.i. FBS (medium-h.i. FBS) and 2mM L-glutamine. […] FBS to a final concentration of 120 µg mL^−1 (two times substrate stock). α-Chymotrypsin was prepared freshly. Fifteen micrograms of α-chymotrypsin was dissolved in 2 mL medium-h.i. FBS, and the pH was adjusted with 10 µL 1 M NaOH. Five millimole CsA, SLF, and CsA/SLF mixture were prepared in DMSO.
One or more flasks of cells (5 mL per flask, depending on the maximum culture density of each cell line) were harvested by centrifuging at 1000 rpm for 3 min. To remove PPIases from the supernatant originating from the culture, cells were washed one time with 2 mL CO2-independent medium and were resuspended in 1.6 mL of CO2-independent medium with substrate. The cells were centrifuged again, and then 800 µL of the supernatant was taken. The residual volume containing cells was suspended. Nineteen microliters of the cells or supernatant was pipetted to a non-binding 96-well microplate to measure PPIase activity. Four different conditions were performed. […] The plate was kept for 5 min without agitation. The activity measurements were triggered by adding 20 µL of α-chymotrypsin at time 0 min, followed by 1.5 min agitation, and the reaction was stopped after 2 min with 80 µL 20% acetic acid, followed by 15 rounds of up and down pipetting mixing. Four independent experiments were performed on the same day.

Pin1 = target: T1, Pin1 (Homo sapiens, UniProt Q13526); experiment: Liquid chromatography-based protease-coupled PPIase activity assay, Pin1 (nagarse); format: biochemical
T1 construct: host or cells: Escherichia coli BL21 (DE3)
Text: A small gap was opened on

[2] = test system: mixture of Jurkat T lymphocyte and the plasma protein fibrinogen; experiment: Viscosity/shear rate measurement of Jurkat cells in fibrinogen solution; format: cell-based
Text: Since PPIases can catalyze the dynamic rearrangement of the dense ECM polymer network, we speculated that PPIases could also affect the dynamic interaction between cells and the ECM. Probing the influence of transient prolyl isomerization on cell–ECM interaction is difficult. Studying cell adhesion by the treatment of PPIase inhibitors cannot distinguish extracellular and intracellular factors as well as receptor-mediated signaling due to the long assay time. In order to reflect the highly dynamic process, we measured the viscosity of plasma protein solution with cells. Blood is a shear-thinning non-Newtonian fluid, and its viscosity is largely affected by the interaction between cells and plasma proteins, for example, the coagulation process. We investigated whether the catalyzed isomerization could also influence the interaction between blood cells and plasma proteins, thus affecting the viscosity. We performed viscosity/shear rate measurements using a mixture of Jurkat T lymphocyte and the plasma protein fibrinogen.
The machine used for viscosity is the same as for stiffness measurements. To 30 µL of 4 mg mL^−1 fibrinogen, an equal volume of Jurkat cells (8 × 10^7 mL^−1 in PBS, washed two times with PBS before used; Jurkat cells ocupated around 20% of the volume) was added. The mixture was pipetted up and down six times, kept on ice for 10 min, and then transferred to the rheometer plater (25 °C) for measurements. The plate temperature was raised to 37 °C. The measurement was performed by increasing shear rate ramp liner from 100 to 1000 s^−1. Hundred data points were collected during the measurements. For each condition, two independent experiments were performed (Fig. 1c and Supplementary Fig. 3).

fibrin hydrogel = experiment: Stiffness (storage modulus) of fibrin gel by rheometer
Description: To minimize sample evaporation at 37 °C, a tissue paper wet in HEPEs buffer (10 mM, pH 7.8) was placed inside the H-PTD chamber to increase the humidity. […] The cone and plate were treated with plasma for 5 min to increase the hydrophilicity of the metal surface.
Fibrin gel: Fibrinogen (Shanghai Laishi Xuezhipin Limited Company) was dissolved in PBS with a concentration of 22.2 mg mL^−1 overnight at room temperature with gentle shaking and aliquoted in protein low-binding tubes (45 µL per tube). […] Fifty microliters of thrombin (4 EU mL^−1 in PBS with 1.8 mM CaCl2) was added and pipetted up and down ten times. Then, it was transferred to the rheometer plate for measurement. […] For each condition, two independent experiments were performed (Fig. 1a and Supplementary Fig. 1).

T1 sequence (Q13526 with tags, fused parts or gaps): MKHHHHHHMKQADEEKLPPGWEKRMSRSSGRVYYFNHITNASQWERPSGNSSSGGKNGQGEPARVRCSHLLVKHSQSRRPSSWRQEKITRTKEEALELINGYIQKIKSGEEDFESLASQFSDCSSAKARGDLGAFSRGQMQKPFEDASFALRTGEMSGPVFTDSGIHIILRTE

Row | Compound | effect on PACS in two-way mixed lymphocyte reaction [1] | cell surface PPIase activity k, Exp. 1 ([1]; healthy donors ab mixed) [s⁻¹] | cell surface PPIase activity k, Exp. 2 ([1]; healthy donors ab mixed) [s⁻¹] | cell surface PPIase activity k, Exp. 3 ([1]; healthy donors ab mixed) [s⁻¹] | cell surface PPIase activity k, Exp. 4 ([1]; healthy donors ab mixed) [s⁻¹] | cell surface PPIase activity k, Mean ([1]; healthy donors ab mixed) [s⁻¹] | cell surface PPIase activity k, Exp. 2 ([1]; healthy donors ac mixed) [s⁻¹] | cell surface PPIase activity k, Exp. 3 ([1]; healthy donors ac mixed) [s⁻¹] | cell surface PPIase activity k, Exp. 4 ([1]; healthy donors ac mixed) [s⁻¹] | cell surface PPIase activity k, Mean ([1]; healthy donors ac mixed) [s⁻¹] | cell surface PPIase activity k, Exp. 1 ([1]; healthy donors ad mixed) [s⁻¹] | cell surface PPIase activity k, Exp. 3 ([1]; healthy donors ad mixed) [s⁻¹] | cell surface PPIase activity k, Exp. 4 ([1]; healthy donors ad mixed) [s⁻¹] | cell surface PPIase activity k, Mean ([1]; healthy donors ad mixed) [s⁻¹] | cell surface PPIase activity k, Exp. 1 ([1]; healthy donors bc mixed) [s⁻¹] | cell surface PPIase activity k, Exp. 3 ([1]; healthy donors bc mixed) [s⁻¹] | cell surface PPIase activity k, Exp. 4 ([1]; healthy donors bc mixed) [s⁻¹] | cell surface PPIase activity k, Mean ([1]; healthy donors bc mixed) [s⁻¹] | cell surface PPIase activity k, Exp. 1 ([1]; healthy donors bd mixed) [s⁻¹] | cell surface PPIase activity k, Exp. 2 ([1]; healthy donors bd mixed) [s⁻¹] | also measured
1 | CO[C@H]1C[C@@H]2CC[C@@H](C)[C@@](O)(O2)C(=O)C(=O)N2CCCC[C@H]2C(=O)O[C@H]([C@H](C)C[C@@H]2CC[C@@H](O)[C@H](OC)C2)CC(=O)[C@H](C)/C=C(\C)[C@@H](O)[C@@H](OC)C(=O)[C@H](C)C[C@H](C)/C=C/C=C/C=C/1C [rapamycin] | recover PACS | 0.00035 | 0.00038 | 0.00034 | 0.0003 | 0.0003425 | 0.00041 | 0.00046 | 0.00043 | 0.0004333 | 0.00034 | 0.00027 | 0.00037 | 0.000315 | 0.00037 | 0.00037 | 0.00034 | 0.00036 | 0.00043 | 0.0005 | cell surface PPIase activity k, Exp. 2 ([1]; healthy donors ad mixed): 0.00028 s⁻¹; cell surface PPIase activity k, Exp. 3 ([1]; healthy donors bd mixed): 0.00053 s⁻¹; cell surface PPIase activity k, Exp. 4 ([1]; healthy donors bd mixed): 0.00054 s⁻¹; cell surface PPIase activity k, Mean ([1]; healthy donors bd mixed): 0.0005 s⁻¹; cell surface PPIase activity k, Exp. 1 ([1]; healthy donors cd mixed): 0.00036 s⁻¹; cell surface PPIase activity k, Exp. 2 ([1]; healthy donors cd mixed): 0.00026 s⁻¹; cell surface PPIase activity k, Exp. 3 ([1]; healthy donors cd mixed): 0.00026 s⁻¹; cell surface PPIase activity k, Exp. 4 ([1]; healthy donors cd mixed): 0.0002 s⁻¹; cell surface PPIase activity k, Mean ([1]; healthy donors cd mixed): 0.00027 s⁻¹
2 | O=P(O)(O)O [PO4-, inorganic phosphate, reference compound] |  |  |  |  |  |  |  |  |  |  |  |  |  |  |  |  |  |  |  |  | Pin catalyzing cis to trans isomerization rate k, Exp. 1 (Pin1; 25 nM Pin1 + 50 mM PO4-): 0.0025 s⁻¹; Pin catalyzing cis to trans isomerization rate k, Exp. 3 (Pin1; 25 nM Pin1 + 50 mM PO4-): 0.00169 s⁻¹; Pin catalyzing cis to trans isomerization rate k, Mean (Pin1; 25 nM Pin1 + 50 mM PO4-): 0.00212 s⁻¹; effect on Pin1 activity (Pin1; 50 mM): inhibited
3 | C=CC[C@@H]1/C=C(\C)C[C@H](C)C[C@H](OC)[C@H]2O[C@@](O)(C(=O)C(=O)N3CCCC[C@H]3C(=O)O[C@H](/C(C)=C/[C@@H]3CC[C@@H](O)[C@H](OC)C3)[C@H](C)[C@@H](O)CC1=O)[C@H](C)C[C@@H]2OC [FK506] | recover PACS | 0.00026 | 0.00025 | 0.00019 | 0.00029 | 0.0002475 | 0.00014 | 0.00019 | 0.00016 | 0.0001625 | 0.00016 | 0.00017 | 0.00015 | 0.00016 | 0.00038 | 0.00031 | 0.00036 | 0.000335 | 0.00021 | 0.00026 | cell surface PPIase activity k, Exp. 1 ([1]; healthy donors ac mixed): 0.00016 s⁻¹; cell surface PPIase activity k, Exp. 2 ([1]; healthy donors bc mixed): 0.00029 s⁻¹; cell surface PPIase activity k, Exp. 4 ([1]; healthy donors bd mixed): 0.00031 s⁻¹; cell surface PPIase activity k, Mean ([1]; healthy donors bd mixed): 0.00026 s⁻¹; cell surface PPIase activity k, Exp. 1 ([1]; healthy donors cd mixed): 0.00017 s⁻¹; cell surface PPIase activity k, Exp. 2 ([1]; healthy donors cd mixed): 0.00019 s⁻¹; cell surface PPIase activity k, Exp. 4 ([1]; healthy donors cd mixed): 0.00018 s⁻¹; cell surface PPIase activity k, Mean ([1]; healthy donors cd mixed): 0.00018 s⁻¹; effect on viscosity of cell/fibrinogen mixture ([2]; Jurkat T lymphocyte and fibrinogen, shear rate 100-1000 s^-1): reduce the viscosity; effect on viscosity of cells in PBS or fibrinogen solution ([2]; Jurkat cells in PBS alone or fibrinogen solution alone): neither CsA nor FK506 has an effect
4 | CypA R55A: inactive mutant CypA R55A (a gift from Gunter Fischer) |  |  |  |  |  |  |  |  |  |  |  |  |  |  |  |  |  |  |  |  | effect on fibrin gelation as compared to the wild-type CypA (fibrin hydrogel): remarkably reduced
5 | Pin1: recombinant His-Pin1, parvulin family PPIase |  |  |  |  |  |  |  |  |  |  |  |  |  |  |  |  |  |  |  |  | Pin catalyzing cis to trans isomerization rate k, Exp. 1 (Pin1; 6.25 nM Pin1): 0.00224 s⁻¹; Pin catalyzing cis to trans isomerization rate k, Exp. 2 (Pin1; 6.25 nM Pin1): 0.00228 s⁻¹; Pin catalyzing cis to trans isomerization rate k, Exp. 3 (Pin1; 6.25 nM Pin1): 0.00191 s⁻¹; Pin catalyzing cis to trans isomerization rate k, Mean (Pin1; 6.25 nM Pin1): 0.00214 s⁻¹; Pin catalyzing cis to trans isomerization rate k, Exp. 1 (Pin1; 12.5 nM Pin1): 0.00419 s⁻¹; Pin catalyzing cis to trans isomerization rate k, Exp. 2 (Pin1; 12.5 nM Pin1): 0.00424 s⁻¹; Pin catalyzing cis to trans isomerization rate k, Exp. 3 (Pin1; 12.5 nM Pin1): 0.00418 s⁻¹; Pin catalyzing cis to trans isomerization rate k, Mean (Pin1; 12.5 nM Pin1): 0.0042 s⁻¹; Pin catalyzing cis to trans isomerization rate k, Exp. 1 (Pin1; 25 nM Pin1): 0.00841 s⁻¹; Pin catalyzing cis to trans isomerization rate k, Exp. 2 (Pin1; 25 nM Pin1): 0.00868 s⁻¹; Pin catalyzing cis to trans isomerization rate k, Exp. 3 (Pin1; 25 nM Pin1): 0.00853 s⁻¹; Pin catalyzing cis to trans isomerization rate k, Mean (Pin1; 25 nM Pin1): 0.00854 s⁻¹
